{"source": "paper PMC12259270", "about": "“Sensory neuron–expressed FGF13 controls nociceptive signaling in diabetic neuropathy models” (The Journal of Clinical Investigation, 2025)", "key": {"C57BL/6 mice": {"system": "C57BL/6 mice", "assay": "Mechanical sensitivity (von Frey, LVF/HVF) after intraplantar injection, mice without capsaicin", "format": "in vivo, mouse", "set-up": "key to LVF Mean / HVF Mean: % withdrawals from 10 consecutive von Frey stimulations", "conditions": "for HVF Mean / LVF Mean: without capsaicin", "protocol": "Experiments were performed on 6- to 12-week-old male C57BL/6 mice (The Jackson Laboratory, Bar Harbor, ME) housed in the AAALAC-accredited facility at the University of Texas Medical Branch. Mice were group-housed with up to 5 mice per cage on a 12-to-12-hour light–dark cycle and had access to water and food ad libitum. All protocols were approved by the Institutional Animal Care and Use Committee (IACUC) at the University of Texas Medical Branch and in accordance with the National Institutes of Health (NIH) guidelines.\nPW164 and ZL192 were dissolved in DMSO and saline in a ratio of 1:10. 0.1% capsaicin (10% ethanol, 10% Tween-20 in saline; Sigma-Aldrich). All the compounds were injected at the center of the hind paw. The control group received a DMSO-saline mixture. […]\nAssessment of mechanical sensitivity\nMechanical sensitivity was assessed using von Frey filaments (VFF 0.1g and 1.0 g force) in mice that were either naïve or received intraplantar (i.p.) injection of capsaicin. VFFs were applied at the injection site (capsaicin or drug unilateral intraderma l injection at the center of the hind paw using a 30 -G needle). VFF of 1.0 g force, which evokes a 40–60% withdrawal response in the naïve condition, was used to detect hyperalgesia, and VFF of 0.1 g […]\nmechanical sensitivity was expressed as % withdrawals from 10 consecutive stimulations. […]"}, "FGF13": {"biological_target": "T1, FGF13 (Homo sapiens, UniProt Q92913)", "T1 construct": "Full-length FGF13-1b (aa 1-192) was subcloned into appropriate plasmids; made in house; host or cells: E. coli BL21 (DE3) pLys", "T1 sequence (Q92913 1-192 isoform Q92913-2)": "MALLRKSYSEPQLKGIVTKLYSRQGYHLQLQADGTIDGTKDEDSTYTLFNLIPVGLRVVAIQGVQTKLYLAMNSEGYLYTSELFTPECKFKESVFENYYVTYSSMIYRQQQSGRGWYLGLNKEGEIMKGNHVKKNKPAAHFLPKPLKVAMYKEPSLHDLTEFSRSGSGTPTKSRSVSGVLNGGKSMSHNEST", "assay": "Surface plasmon resonance (SPR), compound binding to FGF13", "conditions": "for Kd: SPR", "protocol": "page 6: Split-luciferase Complementation Assay (LCA) Twenty-four hours post transfection, cells were trypsinized using TrypLE (Gibco; cat # 12604013), centrifuged […] plates (Greiner Bio -One; cat # 655073 ) at ~0.8 x 10^5 cells per well in 200 μl of medium. The cells were incubated for another 24 hours, and then the growth medium was replaced with 100 μl serum -free, phenol red -free DMEM/F-12 medium (Invitrogen). All compounds from the PW - and the ZL-series, including PW164 and […] medium and then cells were incubated for two hours. The bioluminescence reaction was initiated by injection of 100 μl of D -luciferin substrate (1.5 mg/ml dissolved in PBS) using a Synergy H4 multimode microplate reader (BioTek). Luminescence readings were initiated after 3 s of mild plate shaking and performed at 2 min intervals […] °C. Raw signal intensity was computed by averaging peak luminescence plus two adjacent time points. Normalized signal intensity was expressed as the percentage of mean signal intensity relative to per plate control […] Surface plasmon resonance (SPR) All SPR experiments were performed on a Biacore T100 (GE Healthcare). […] ([…]) , which was previously described (14) or purified FGF13 were immobilized on CM5 sensor chip using 10 mM sodium acetate buffer (pH 5.5) with Amine Coupling Kit (GE […] to the control channel of the chip. For each compound, stock solution (50 mM) was serially diluted from 300 to 1 […] Samples were injected over the chip for 60 s followed by […] page 7: […] The nonspecific responses (buffer alone) were extracted for injected compound or peptide from experimental sensograms before data analysis. Data was analyzed for kinetic properties using Biacore T100 Analysis software. Visually inspected sensograms/traces were used to calculate the equilibrium constant (KD): i. the maximal responses were plotted against the treated concentrations, and the steady state KD was calculated from the fitted saturation binding curve; ii. a kinetic analysis for all ligand/analyte interaction was obtained by using Langmuir 1:1 interaction fitting model (KD = koff/kon). RNA isolation from DRG Mouse surgical and experimental procedures employed were approved by the University of Texas Medical Branch Institutional Animal Care and Use Committee. Animals were sacrificed using carbon dioxide before confirmation of death, rather than cervical dislocation. Mouse lumbar dorsal root ganglia (L4 and L5) were dissected and collected in Buffer RLT Plus (RNeasy Plus Mini Kit, QIAGEN, cat. nos. 74136). RNA was isolated according to the protocol reported in the same kit. Quantitative reverse transcriptase PCR (qRT-PCR) RNA samples for real-time analysis were then quantified using a Nanodrop Spectrophotometer (Thermo Scientific). cDNA was generated from total RNA (1 μg) in a 20 μl reaction using the reagents of iScriptTM Reverse Transcription Supermix for RT-qPCR (Bio-Rad Laboratories, cat. 1708840). FGF13 gene expression was determined by qRT-PCR. qRT-PCR was performed in duplicate for each sample using 4 μl of cDNA in a total volume of 20 μl using the iTaq Universal SYBR Green Supermix (Bio-Rad, Hercules, CA, United States). All RT-PCR assays were run using the BioRad CFX384 Touch Real-Time PCR System (Bio-Rad, Hercules, CA, United States) with the following conditions: 95°[…]) repeated by 40 cycles and 4°C. […] The internal reference gene for SYBR Green assays was 18[NT] and 5'-CTC"}}, "note": "Residues, ends and D or L forms follow the SMILES beside them. *: point of attachment. Cbz = O=C(OCc1ccccc1)*; NHPh = c1ccc(N*)cc1; OtBu = CC(C)(C)O*", "data": [{"smiles": "COC(=O)[C@@H](NC(=O)[C@H](CCC(=O)OC(C)(C)C)NC(=O)[C@H](CC(C)C)NC(=O)[C@@H]1CCCN1C(=O)OCc1ccccc1)C(C)C", "note": "[PW164] (Cbz-PLE(OtBu)V-OMe)", "values": [{"measurement": "HVF Mean", "setting": "C57BL/6 mice; PW164 0.07mg/mL, Time (h) 0", "result": 50}, {"measurement": "LVF Mean", "setting": "C57BL/6 mice; PW164 0.07mg/mL, Time (h) 0", "result": 0}, {"measurement": "HVF Mean", "setting": "C57BL/6 mice; PW164 0.07mg/mL, Time (h) 0.5", "result": 50}, {"measurement": "LVF Mean", "setting": "C57BL/6 mice; PW164 0.07mg/mL, Time (h) 0.5", "result": 0}, {"measurement": "HVF Mean", "setting": "C57BL/6 mice; PW164 0.07mg/mL, Time (h) 1", "result": 55}, {"measurement": "LVF Mean", "setting": "C57BL/6 mice; PW164 0.07mg/mL, Time (h) 1", "result": 0}, {"measurement": "HVF Mean", "setting": "C57BL/6 mice; PW164 0.07mg/mL, Time (h) 1.5", "result": 50}, {"measurement": "LVF Mean", "setting": "C57BL/6 mice; PW164 0.07mg/mL, Time (h) 1.5", "result": 0}, {"measurement": "HVF Mean", "setting": "C57BL/6 mice; PW164 0.07mg/mL, Time (h) 2", "result": 50}, {"measurement": "LVF Mean", "setting": "C57BL/6 mice; PW164 0.07mg/mL, Time (h) 2", "result": 0}, {"measurement": "HVF Mean", "setting": "C57BL/6 mice; PW164 0.21 mg/mL, Time (h) 0", "result": 53.3333}, {"measurement": "LVF Mean", "setting": "C57BL/6 mice; PW164 0.21 mg/mL, Time (h) 0", "result": 0}, {"measurement": "HVF Mean", "setting": "C57BL/6 mice; PW164 0.21 mg/mL, Time (h) 0.5", "result": 50}, {"measurement": "LVF Mean", "setting": "C57BL/6 mice; PW164 0.21 mg/mL, Time (h) 0.5", "result": 0}, {"measurement": "HVF Mean", "setting": "C57BL/6 mice; PW164 0.21 mg/mL, Time (h) 1", "result": 50}, {"measurement": "LVF Mean", "setting": "C57BL/6 mice; PW164 0.21 mg/mL, Time (h) 1", "result": 0}, {"measurement": "HVF Mean", "setting": "C57BL/6 mice; PW164 0.21 mg/mL, Time (h) 1.5", "result": 53.3333}, {"measurement": "LVF Mean", "setting": "C57BL/6 mice; PW164 0.21 mg/mL, Time (h) 1.5", "result": 0}, {"measurement": "HVF Mean", "setting": "C57BL/6 mice; PW164 0.21 mg/mL, Time (h) 2", "result": 50}, {"measurement": "LVF Mean", "setting": "C57BL/6 mice; PW164 0.21 mg/mL, Time (h) 2", "result": 3.333}, {"measurement": "HVF Mean", "setting": "C57BL/6 mice; PW164 0.7 mg/mL, Time (h) 0", "result": 53.3333}, {"measurement": "LVF Mean", "setting": "C57BL/6 mice; PW164 0.7 mg/mL, Time (h) 0", "result": 0}, {"measurement": "HVF Mean", "setting": "C57BL/6 mice; PW164 0.7 mg/mL, Time (h) 0.5", "result": 50}, {"measurement": "LVF Mean", "setting": "C57BL/6 mice; PW164 0.7 mg/mL, Time (h) 0.5", "result": 0}, {"measurement": "HVF Mean", "setting": "C57BL/6 mice; PW164 0.7 mg/mL, Time (h) 1", "result": 56.6667}, {"measurement": "LVF Mean", "setting": "C57BL/6 mice; PW164 0.7 mg/mL, Time (h) 1", "result": 0}, {"measurement": "HVF Mean", "setting": "C57BL/6 mice; PW164 0.7 mg/mL, Time (h) 1.5", "result": 53.3333}, {"measurement": "LVF Mean", "setting": "C57BL/6 mice; PW164 0.7 mg/mL, Time (h) 1.5", "result": 3.333}, {"measurement": "HVF Mean", "setting": "C57BL/6 mice; PW164 0.7 mg/mL, Time (h) 2", "result": 56.6667}, {"measurement": "LVF Mean", "setting": "C57BL/6 mice; PW164 0.7 mg/mL, Time (h) 2", "result": 0}, {"measurement": "paw withdrawal to LVF/HVF stimulation, normal sensitivity", "setting": "C57BL/6 mice; WT mice, i.pl. 5 μL, doses tested", "result": "did not affect paw withdrawal"}, {"measurement": "Kd", "setting": "FGF13", "result": "21 ± 3", "unit": "µM"}]}, {"smiles": "CC(=O)N[C@@H](Cc1ccccc1)C(=O)N[C@@H](CC(C)C)C(=O)N1CCC[C@H]1C(=O)N[C@@H](CCCCN)C(=O)Nc1ccccc1", "note": "[ZL192] (Ac-FLPK-NHPh)", "values": [{"measurement": "mechanical hypersensitivity in AAV2-shFGF13 mice", "setting": "C57BL/6 mice; ZL192 0.18 mg/mL, i.pl.", "result": "absent"}, {"measurement": "mechanical sensitivity in AAV2-shCTRL mice", "setting": "C57BL/6 mice; ZL192 0.18 mg/mL, i.pl.", "result": "caused mechanical and thermal hypersensitivity"}, {"measurement": "duration of increased mechanical response", "setting": "C57BL/6 mice; naive WT mice, ZL192 i.pl. 0.06 or 0.18 mg/mL", "result": "up to 2 hours"}, {"measurement": "response to LVF and HVF stimulation", "setting": "C57BL/6 mice; naive WT mice, ZL192 i.pl. 5 μL, 0.06 or 0.18 mg/mL, vs vehicle", "result": "increased the response"}, {"measurement": "Kd", "setting": "FGF13", "result": 4, "unit": "µM"}, {"measurement": "Figure 1C Right panel, Mean response versus concentration", "setting": "FGF13; concentration 3.12e-6", "result": 10.5172}, {"measurement": "Figure 1C Right panel, Mean response versus concentration", "setting": "FGF13; concentration 6.25e-6", "result": 11.7391}, {"measurement": "Figure 1C Right panel, Mean response versus concentration", "setting": "FGF13; concentration 1.25e-5", "result": 12.5757}, {"measurement": "Figure 1C Right panel, Mean response versus concentration", "setting": "FGF13; concentration 2.5e-5", "result": 14.2936}, {"measurement": "Figure 1C Right panel, Mean response versus concentration", "setting": "FGF13; concentration 5e-5", "result": 15.3045}, {"measurement": "Figure 1C Right panel, Mean response versus concentration", "setting": "FGF13; concentration 7.5e-5", "result": 16.2485}, {"measurement": "Figure 1C Right panel, Mean response versus concentration", "setting": "FGF13; concentration 0.0001", "result": 18.1479}, {"measurement": "Figure 1C Right panel, Mean response versus concentration", "setting": "FGF13; concentration 0.00015", "result": 20.366}, {"measurement": "Figure 1C Right panel, Mean response versus concentration", "setting": "FGF13; concentration 0.0002", "result": 22.3345}, {"measurement": "Figure 1C Right panel, Mean response versus concentration", "setting": "FGF13; concentration 0.0003", "result": 22.6291}, {"measurement": "Figure 1C Right panel, Mean response versus concentration", "setting": "FGF13; concentration 7.80E-07", "result": 7.018}]}]}
